Results as given in article PMC5011342, “A high throughput drug screening assay to identify compounds that promote oligodendrocyte differentiation using acutely dissociated and purified oligodendrocyte precursor cells” (BMC Research Notes, 2016).
Where two headings read alike, the source gives them in different places.

Legend:
[1] = system: acutely dissociated and purified rat OPCs; experiment: Acute OL differentiation assay (MBP expression/cell, immunofluorescent image quantification); format: cell-based
Summary of the method: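 Oligodendrocyte precursor cells were enriched from P6-P7 Sprague–Dawley rat brains by immunopanning (RAN-2 and GalC depletion, O4 selection), plated at 5000 cells/well in serum-free, mitogen-free differentiation media on PDL/laminin 96-well view plates, centrifuged at 200×g, and pre-incubated 1–2 h before test compounds were added in quadruplicate. On DIV4, cells were fixed, stained for MBP and DAPI, imaged automatically, and MBP expression per cell was quantified.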

expanded OPCs = experiment: cells; details: for 0.1 µM (% DMSO) / 1 µM (% DMSO) / 10 µM (% DMSO): alamarBlue viability of expanded OPCs; for 0.1 µM (% DMSO): compound at 0.1 µM; for 1 µM (% DMSO): compound at 1 µM; for 10 µM (% DMSO): compound at 10 µM; for viability at 0.1 µM / viability at 1 µM / viability at 10 µM: Rattus norvegicus, 72 h
Summary of the method: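 Expanded OPCs seeded at 10,000 cells/well in differentiation media, then exposed to NCC library compounds at 10, 1 and 0.1 µM (quadruplicate, 0.1% DMSO) for three days. Viability read as alamarBlue fluorescence (560/590 nm) after 4 h at 37 °C; tunicamycin 5 ng/ml served as toxicity control.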

[2] = Rattus norvegicus, test compound at 0.4 uM, NCC library screen, sheet "All OLga data", relative to quetiapine, read-out: 0.4 uM (% Quet)
[3] = Rattus norvegicus, test compound at 2 uM, NCC library screen, sheet "All OLga data", relative to quetiapine, read-out: 2 uM (% Quet)
[4] = read-out: 0.1 µM (% DMSO), alamarBlue viability, NCC library compound at 0.1 µM, sheet "All Tox data"
[5] = read-out: 1 µM (% DMSO), alamarBlue viability, NCC library compound at 1 µM, sheet "All Tox data"
[6] = read-out: 10 µM (% DMSO), alamarBlue viability, NCC library compound at 10 µM, sheet "All Tox data"
[7] = Rattus norvegicus, 2 uM test compound, relative to quetiapine, sheet "All OLga data", read-out: OL differentiation, 2 uM (% Quet)
[8] = Rattus norvegicus, 10 uM test compound, relative to quetiapine, sheet "All OLga data", read-out: OL differentiation, 10 uM (% Quet)
[9] = read-out: 0.1 µM (% DMSO), alamarBlue viability of expanded OPCs, compound at 0.1 µM, sheet All Tox data
[10] = read-out: 1 µM (% DMSO), alamarBlue viability of expanded OPCs, compound at 1 µM, sheet All Tox data
[11] = read-out: 10 µM (% DMSO), alamarBlue viability of expanded OPCs, compound at 10 µM, sheet All Tox data
[12] = Rattus norvegicus, 0.4 uM test compound, relative to quetiapine, sheet "All OLga data", read-out: OL differentiation, 0.4 uM (% Quet)
[13] = Rattus norvegicus, test compound at 10 uM, NCC library screen, sheet "All OLga data", relative to quetiapine, read-out: 10 uM (% Quet)
[14] = Rattus norvegicus, 0.08 uM test compound, relative to quetiapine, sheet "All OLga data", read-out: OL differentiation, 0.08 uM (% Quet)

C[C@@H]1C[C@H]2[C@@H]3C[C@H](F)C4=CC(=O)C(Cl)=C[C@]4(C)[C@@]3(F)[C@@H](O)C[C@]2(C)[C@@]1(O)C(=O)CO.O [Halometasone hydrate]
OL differentiation, 2 uM (% Quet) ([1]; 2 uM test compound, relative to quetiapine, sheet "All OLga data"): -42.5 % Quet | OL differentiation, 10 uM (% Quet) ([1]; 10 uM test compound, relative to quetiapine, sheet "All OLga data"): -89.7 % Quet | 0.1 µM (% DMSO) (expanded OPCs; sheet All Tox data): 103.7 % DMSO | 1 µM (% DMSO) (expanded OPCs; sheet All Tox data): 109.3 % DMSO | 10 µM (% DMSO) (expanded OPCs; sheet All Tox data): 105.9 % DMSO

O=C(CCCN1CCC(O)(c2ccc(Cl)cc2)CC1)c1ccc(F)cc1 [Haloperidol]
activation at 0.4 µM [1, 2]: -22.3% | activation at 2 µM [1, 3]: 4.1% | viability at 0.1 µM (expanded OPCs; [4]): 64% | viability at 1 µM (expanded OPCs; [5]): 69.1% | viability at 10 µM (expanded OPCs; [6]): 45.7%

Oc1c(Cl)cc(Cl)c(Cl)c1Cc1c(O)c(Cl)cc(Cl)c1Cl [Hexachlorophene]
activation at 0.08 µM ([1]; Rattus norvegicus, read-out: 0.08 uM (% Quet)): -122% | 0.1 µM (% DMSO) (expanded OPCs; relative to DMSO control): 115.4 % DMSO | 1 µM (% DMSO) (expanded OPCs; relative to DMSO control): 10.8 % DMSO | 10 µM (% DMSO) (expanded OPCs; relative to DMSO control): 9.0 % DMSO

CC(=O)NCCCCCCNC(C)=O [Hexamethylene bisacetamide]
activation at 2 µM [1, 7]: 4.1% | activation at 10 µM [1, 8]: 12.8% | viability at 0.1 µM (expanded OPCs; [9]): 80.5% | viability at 1 µM (expanded OPCs; [10]): 83.1% | viability at 10 µM (expanded OPCs; [11]): 87.3%

COC(=O)C[C@](O)(CCCC(C)(C)O)C(=O)O[C@@H]1C(OC)=C[C@]23CCCN2CCc2cc4c(cc2[C@H]13)OCO4 [Homoharringtonine]
activation at 0.08 µM ([1]; Rattus norvegicus, test compound at 0.08 uM, NCC library screen, sheet "All OLga data", relative to quetiapine, read-out: 0.08 uM (% Quet)): -112% | activation at 0.4 µM [1, 2]: -172% | viability at 0.1 µM (expanded OPCs; [4]): 10.7% | viability at 1 µM (expanded OPCs; [5]): 9.9% | viability at 10 µM (expanded OPCs; [6]): 9.6%

C=CCc1ccc(O)c(-c2ccc(O)c(CC=C)c2)c1 [Honokiol]
activation at 0.4 µM [1, 12]: 9.1% | viability at 0.1 µM (expanded OPCs; [9]): 95.4% | viability at 1 µM (expanded OPCs; [10]): 78.2% | viability at 10 µM (expanded OPCs; [11]): 11.4%

C/C=C1\[C@H]2C=C(C)C[C@]1(N)c1ccc(=O)[nH]c1C2 [Huperzine A]
activation at 2 µM [1, 3]: -19.5% | activation at 10 µM [1, 13]: -60.7% | viability at 0.1 µM (expanded OPCs; [4]): 94.2% | viability at 1 µM (expanded OPCs; [5]): 90% | viability at 10 µM (expanded OPCs; [6]): 93.8%

NS(=O)(=O)c1cc2c(cc1Cl)NCNS2(=O)=O [Hydrochlorothiazide]
activation at 2 µM ([1]; Rattus norvegicus, test compound at 2 uM, MBP expression relative to quetiapine, NCC library screen, sheet "All OLga data", read-out: 2 uM (% Quet)): -36% | activation at 10 µM ([1]; Rattus norvegicus, test compound at 10 uM, MBP expression relative to quetiapine, NCC library screen, sheet "All OLga data", read-out: 10 uM (% Quet)): -46% | 0.1 µM (% DMSO) (expanded OPCs; relative to DMSO control): 96.6 % DMSO | 1 µM (% DMSO) (expanded OPCs; relative to DMSO control): 97.1 % DMSO | 10 µM (% DMSO) (expanded OPCs; relative to DMSO control): 90.6 % DMSO

CCCC(=O)O[C@]1(C(=O)COC(=O)CC)CC[C@H]2[C@@H]3CCC4=CC(=O)CC[C@]4(C)[C@H]3[C@@H](O)C[C@@]21C [Hydrocortisone buteprate]
activation at 2 µM [1, 3]: 19.4% | activation at 10 µM [1, 13]: 13.5% | 0.1 µM (% DMSO) (expanded OPCs; relative to DMSO control): 112.3 % DMSO | 1 µM (% DMSO) (expanded OPCs; relative to DMSO control): 102.8 % DMSO | 10 µM (% DMSO) (expanded OPCs; relative to DMSO control): 90.3 % DMSO

NS(=O)(=O)c1cc2c(cc1C(F)(F)F)NCNS2(=O)=O [Hydroflumethiazide]
activation at 2 µM [1, 3]: -24.5% | activation at 10 µM [1, 13]: -39% | 0.1 µM (% DMSO) (expanded OPCs; relative to DMSO control): 104.6 % DMSO | 1 µM (% DMSO) (expanded OPCs; relative to DMSO control): 96.9 % DMSO | 10 µM (% DMSO) (expanded OPCs; relative to DMSO control): 87.1 % DMSO

O=C(O)c1cc2ccccc2c(Cc2c(O)c(C(=O)O)cc3ccccc23)c1O.OCCOCCN1CCN(C(c2ccccc2)c2ccc(Cl)cc2)CC1 [Hydroxyzine pamoate salt]
2 uM (% Quet) ([1]; test compound at 2 uM, NCC library screen, sheet "All OLga data", relative to quetiapine): 106.0 % Quet | 10 uM (% Quet) ([1]; test compound at 10 uM, NCC library screen, sheet "All OLga data", relative to quetiapine): 16.6 % Quet | 0.1 µM (% DMSO) (expanded OPCs; relative to DMSO control): 223.4 % DMSO | 1 µM (% DMSO) (expanded OPCs; relative to DMSO control): 190.1 % DMSO | 10 µM (% DMSO) (expanded OPCs; relative to DMSO control): 134.2 % DMSO

O=c1c(O[C@@H]2O[C@H](CO)[C@H](O)[C@H](O)[C@H]2O)c(-c2ccc(O)c(O)c2)oc2cc(O)cc(O)c12 [Hyperoside]
activation at 0.08 µM [1, 14]: -14.3% | activation at 0.4 µM [1, 12]: -70.9% | viability at 0.1 µM (expanded OPCs; [9]): 90.3% | viability at 1 µM (expanded OPCs; [10]): 29.8% | viability at 10 µM (expanded OPCs; [11]): 14.6%

CC(C)Cc1ccc(C(C)C(=O)O)cc1 (centres unmarked) [Ibuprofen]
activation at 2 µM [1, 3]: 12% | activation at 10 µM [1, 13]: -9.8% | 0.1 µM (% DMSO) (expanded OPCs; relative to DMSO control): 91.7 % DMSO | 1 µM (% DMSO) (expanded OPCs; relative to DMSO control): 90.2 % DMSO | 10 µM (% DMSO) (expanded OPCs; relative to DMSO control): 89.1 % DMSO

COc1ccc(-c2oc3c(CC=C(C)C)c(O[C@@H]4O[C@H](CO)[C@@H](O)[C@H](O)[C@H]4O)cc(O)c3c(=O)c2O[C@@H]2O[C@@H](C)[C@H](O)[C@@H](O)[C@H]2O)cc1 [Icariin]
activation at 2 µM [1, 7]: 6.3% | activation at 10 µM [1, 8]: 9.8% | viability at 0.1 µM (expanded OPCs; [9]): 86.4% | viability at 1 µM (expanded OPCs; [10]): 88.3% | viability at 10 µM (expanded OPCs; [11]): 88.8%

COC1=C(OC)C(=O)C(CCCCCCCCCCO)=C(C)C1=O [Idebenone]
activation at 0.4 µM [1, 12]: -11.1% | viability at 0.1 µM (expanded OPCs; [9]): 99.7% | viability at 1 µM (expanded OPCs; [10]): 80.9% | viability at 10 µM (expanded OPCs; [11]): 11%

CC(C(O)c1ccc(O)cc1)N1CCC(Cc2ccccc2)CC1 (centres unmarked) [Ifenprodil, reference compound]
activation at 2 µM [1, 7]: 162% | activation at 10 µM [1, 8]: 154% | EC50 ([1]; Rattus norvegicus, average EC50 for induction of OL differentiation from independent biological replicates, eight concentrations): 400 nM | hit in OL differentiation assay, MRF-TMC ([1]; ● = confirmed hit in this paper's assay): ● | viability at 0.1 µM (expanded OPCs; [9]): 93% | viability at 1 µM (expanded OPCs; [10]): 135% | viability at 10 µM (expanded OPCs; [11]): 103%

CC1Cc2ccccc2N1NC(=O)c1ccc(Cl)c(S(N)(=O)=O)c1 (centres unmarked) [Indapamide]
activation at 2 µM [1, 3]: -10% | activation at 10 µM [1, 13]: -12.4% | viability at 0.1 µM (expanded OPCs; [4]): 95.2% | viability at 1 µM (expanded OPCs; [5]): 92.1% | viability at 10 µM (expanded OPCs; [6]): 101%

CNC1CC(c2ccc(Cl)c(Cl)c2)c2ccccc21 (centres unmarked) [Indatraline]
activation at 0.08 µM [1, 14]: 15.3% | activation at 0.4 µM [1, 12]: 24.5% | viability at 0.1 µM (expanded OPCs; [9]): 75.5% | viability at 1 µM (expanded OPCs; [10]): 41.1% | viability at 10 µM (expanded OPCs; [11]): 11.7%

CC(C)(C)NC(=O)[C@@H]1CN(Cc2cccnc2)CCN1C[C@@H](O)C[C@@H](Cc1ccccc1)C(=O)N[C@H]1c2ccccc2C[C@H]1O [Indinavir]
activation at 2 µM [1, 7]: 13.4% | activation at 10 µM [1, 8]: -44.2% | viability at 0.1 µM (expanded OPCs; [9]): 105% | viability at 1 µM (expanded OPCs; [10]): 91.7% | viability at 10 µM (expanded OPCs; [11]): 92.2%

O=C1Nc2ccccc2/C1=C1/Nc2ccccc2C1=O [Indirubin]
activation at 0.4 µM [1, 12]: 26% | activation at 2 µM [1, 7]: 108% | viability at 0.1 µM (expanded OPCs; [4]): 97.6% | viability at 1 µM (expanded OPCs; [5]): 78.2% | viability at 10 µM (expanded OPCs; [6]): 46.3%

COc1ccc2c(c1)c(CC(=O)O)c(C)n2C(=O)c1ccc(Cl)cc1 [Indomethacin]
activation at 2 µM [1, 7]: -10.2% | activation at 10 µM [1, 8]: 2.6% | viability at 0.1 µM (expanded OPCs; [9]): 81.3% | viability at 1 µM (expanded OPCs; [10]): 85.4% | viability at 10 µM (expanded OPCs; [11]): 87.1%
